Source: patent publication US5762953A, “Transdermal propentofylline compositions for the treatment of Alzheimers disease” (Theratech, Inc., priority 1996, dated 1998)

Legend:
[1] = In vitro skin flux study of reservoir formulations, heat separated human epidermal membrane, modified Franz diffusion cells; format: in vitro ADME
Protocol: Two reservoir type formulations (I and II) were prepared for the determination of initial propentofylline skin flux rates.
Approximately 4.0 ml of a base solution was prepared in a 7 ml glass vial. This solution consisted of 50% v/v of ethanol, USP; 15% v/v purified water (18 Mohm-cm); 30% v/v glycerin, USP; 1% v/v of glycerol monooleate (GMO, "Myverol® 18-99); 1% v/v methyl laurate (ML). To one solution was added sufficient propentofylline provide a concentration of about 72 mg/ml of solution (Formulation I) and to the other was added sufficient propentofylline to provide a concentration of about 131 mg/ml of solution (Formulation II). To each solution was added about 3% v/v of hydroxypropyl methylcellulose (Methocel® E10M) as a thickening agent. […]
Dermatomed (≈[…]) full thickness human cadaver skin was obtained from skin banks. […] Information on age, race, sex and anatomical site of the donor skin was recorded when available.
[…] skin flux studies were conducted using a heat separated human epidermal membrane and modified Franz diffusion cells. […] At predetermined time points, the entire contents of the receiver compartment were collected for drug quantitation,and the receiver compartment refilled with fresh receptor medium, taking care to eliminate any air bubbles at the skin/solution interface. […]

[2] = cited from earlier work
[3] = cited from earlier work; remark: listed apart in the source
[4] = oral treatment; cited from earlier work
[5] = test system: nucleoside transport; details: cerebral ischemia; cited from earlier work

For CCCn1cnc2c1c(=O)n(CCCCC(C)=O)c(=O)n2C [propentofylline, 1-(5'-oxohexyl)-3-methyl-7-propylxanthine], the constant migration rate [1] is listed as “about 2 mg/cm^2 /24 h”, the “sustained daily dosage provided by transdermal delivery” value [1] is listed as 30 mg and the plasma propentofylline concentration ([2]; 2 hours following a single 300 mg oral dose, concluded from literature PK data) is listed as about 10 ng/mL. The elimination half-life ([2]; humans) was 15 to 45 min, the “hepatic first pass metabolism” value ([2]; humans) was “extensive hepatic first pass metabolism primarily to inactive metabolites” and the “absolute bioavailability after oral administration” value ([2]; oral, humans) was 5-10%. The “effect of food on bioavailability” value ([2]; oral, humans) was “Drug interactions with food further reduce bioavailability”, the “rate of deterioration / acute improvement of patient's condition” value ([3]; neuroprotective effect) was “although not producing an acute improvement in the patient's condition, does cause a reduction in the rate of deterioration” and the “clinical parameters in dementia” value ([3]; placebo controlled trials, mild to moderate dementia) was “positively influence clinical parameters in placebo controlled trials”. The “most frequent side effects” value [4] was “headaches, dizziness, gastrointestinal pain and nausea” and the “nucleoside transport inhibition, neuroprotective effects” value [5] was “nucleoside transport inhibitor with neuroprotective effects in cerebral ischemia”.
